ChEMBL document CHEMBL1201862, “PubChem BioAssay data set” (2004)
The source made the active and inactive calls.

Columns and labels:
cells = format: functional, cell-based; conditions: HEK-CNG
Galanin receptor type 3 = Galanin receptor type 3 (Homo sapiens, UniProt O60755); assay: Fluorescence-based cell-based primary high throughput dose response assay to identify antagonists of the Galanin Receptor 3 (GalR3).; format: functional
[1] = HEK-293T viability loss after treatment – luminescence, T-cell screen hits, cytotoxicity control for TCR NF-kB inhibitor project, dose response (AID 489026); format: functional, cell-based;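 note: cells exposed to compound about 14 hours before the viability readout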
H9c2 = assay: cells; format: functional, cell-based; conditions: Rattus norvegicus, H9c2, Myocardium;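 note: confirmatory concentration-response retest of ultra-high-throughput screening hits for modulation of myocardial damage; cell death induced by hydrogen peroxide oxidative stress; compound pretreatment for 60 min then peroxide exposure for 2 h; potency is for protecting the cells against peroxide damage rather than for killing them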
[2] = molecular target: DNA repair protein RAD52 homolog (Homo sapiens, UniProt P43351); format: functional, biochemical
Chain of DNA repair protein RAD52 homolog (P43351 whole entry): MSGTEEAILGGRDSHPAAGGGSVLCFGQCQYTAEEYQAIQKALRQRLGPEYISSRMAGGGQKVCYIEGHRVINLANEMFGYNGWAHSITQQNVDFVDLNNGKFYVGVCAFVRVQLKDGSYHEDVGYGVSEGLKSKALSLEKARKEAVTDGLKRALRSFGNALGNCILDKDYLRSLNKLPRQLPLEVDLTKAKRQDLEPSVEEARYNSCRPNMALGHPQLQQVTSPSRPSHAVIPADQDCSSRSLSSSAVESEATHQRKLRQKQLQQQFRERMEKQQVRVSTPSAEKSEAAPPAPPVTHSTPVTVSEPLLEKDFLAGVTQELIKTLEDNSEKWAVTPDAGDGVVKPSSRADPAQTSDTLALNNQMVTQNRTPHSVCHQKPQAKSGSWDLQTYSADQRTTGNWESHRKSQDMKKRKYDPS

[3] = Luminescence-based dose response cell-based high throughput screening assay for cytotoxic compounds using the IEC-6 intestinal epithelial cell line. [Related pubchem assays: 1858 (Summary AID.), 1825 (Counterscreen.), 1907 (Confirmation screen.)]; format: functional
INS1 = assay: INS-1E survival protection against cytokine death – cell-based, luminescence, retest, dose response (AID 449756); format: functional; conditions: Rattus norvegicus;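 note: cell death triggered by IL-1 beta plus TNF-alpha plus IFN-gamma mixture; protective hits raise ATP signal compared with cytokine alone wells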
[4] = general mammalian cell viability loss – inhibitor set, cherry-pick, set 2, cytotoxicity control for miR-122 modulator project, dose response (AID 720697); format: functional, cell-based
[5] = Luminescence Cell-Based Dose Retest to Confirm Inhibitors of Cancer Stem Cells. [Related pubchem assays (depositor defined):AID2717, AID2721]; format: functional; conditions: Homo sapiens
[6] = activation of miR-122 Renilla sensor silencing – cell-based, Huh7 psiCHECK-miR122, Renilla luciferase, cherry-picked, dose response (AID 651956); format: functional;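 note: huh7 hepatoma cells stably carrying a psiCHECK-2 miR-122 sensor plasmid; renilla luciferase signal reporting endogenous miR-122 activity after 48 h compound exposure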
[7] = molecular target: Broad substrate specificity ATP-binding cassette transporter ABCG2 (Homo sapiens, UniProt Q9UNQ0); assay: blockers of JC-1 export by ABCG2 – Ig-MXP3 cells, flow cytometry, dose response (AID 1690); format: functional
Chain of Broad substrate specificity ATP-binding cassette transporter ABCG2 (Q9UNQ0 whole entry): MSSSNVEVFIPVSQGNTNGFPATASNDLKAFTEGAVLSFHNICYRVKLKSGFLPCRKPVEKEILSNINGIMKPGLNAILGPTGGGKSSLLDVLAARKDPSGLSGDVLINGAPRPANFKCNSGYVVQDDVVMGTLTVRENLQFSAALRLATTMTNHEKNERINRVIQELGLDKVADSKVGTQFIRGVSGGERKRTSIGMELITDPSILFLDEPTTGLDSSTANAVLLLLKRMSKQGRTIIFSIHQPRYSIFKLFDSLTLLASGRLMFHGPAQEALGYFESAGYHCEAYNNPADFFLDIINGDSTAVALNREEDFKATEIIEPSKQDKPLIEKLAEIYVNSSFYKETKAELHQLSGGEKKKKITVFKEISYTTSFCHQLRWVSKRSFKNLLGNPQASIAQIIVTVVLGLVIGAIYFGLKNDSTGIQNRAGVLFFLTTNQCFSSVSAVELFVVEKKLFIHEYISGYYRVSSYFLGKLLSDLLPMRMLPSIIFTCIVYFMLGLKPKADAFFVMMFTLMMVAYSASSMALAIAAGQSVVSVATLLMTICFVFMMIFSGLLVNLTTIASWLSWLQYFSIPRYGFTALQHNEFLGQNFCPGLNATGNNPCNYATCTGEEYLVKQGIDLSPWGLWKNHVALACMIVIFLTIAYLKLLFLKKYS

[8] = molecular target: Matrix metalloproteinase-14 (Homo sapiens, UniProt P50281); assay: Dose Response confirmation of uHTS hits for a small molecule inhibitors of MT1-MMP activation in a fluorescence assay set 1.; format: functional
[9] = molecular target: T1, Trace amine-associated receptor 1 (Homo sapiens, UniProt Q96RJ0); assay: Fluorescence-based cell-based high throughput dose response assay to identify antagonists of the human trace amine associated receptor 1 (TAAR1).; format: functional
T1 sequence (Q96RJ0 whole entry): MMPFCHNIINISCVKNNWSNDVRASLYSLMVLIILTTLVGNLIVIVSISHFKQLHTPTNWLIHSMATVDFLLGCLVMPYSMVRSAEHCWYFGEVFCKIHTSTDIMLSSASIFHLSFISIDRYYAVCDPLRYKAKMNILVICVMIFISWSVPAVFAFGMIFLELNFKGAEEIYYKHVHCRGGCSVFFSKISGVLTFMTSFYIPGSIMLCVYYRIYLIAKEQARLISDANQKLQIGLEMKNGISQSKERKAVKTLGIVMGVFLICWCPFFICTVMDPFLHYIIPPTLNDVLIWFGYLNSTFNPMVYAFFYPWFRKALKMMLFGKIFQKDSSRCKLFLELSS

[10] = Counterscreen for […] of the human trace amine associated receptor 1 (TAAR1): Fluorescence-based cell-based high throughput dose response assay to identify nonselective Ga16 agonists.; format: functional
[11] = Counterscreen for antagonists of the human trace amine associated receptor 1 (hTAAR1): Fluorescence-based cell-based high throughput dose response assay to identify nonselective Ga16 antagonists.; format: functional
[12] = molecular target: T1, Trace amine-associated receptor 1; assay: Counterscreen for antagonists of the human trace amine associated receptor 1 (hTAAR1): Fluorescence-based cell-based high throughput dose response assay to identify TAAR1 Agonists.; format: functional
[13] = molecular target: T2, Tyrosine-protein phosphatase non-receptor type 22 (Homo sapiens, UniProt Q9Y2R2); assay: lymphoid phosphatase LYP inhibitors – biochemical, selectivity assay for STEP inhibitor project, dose response (AID 624241); format: functional
T2 sequence (Q9Y2R2 whole entry): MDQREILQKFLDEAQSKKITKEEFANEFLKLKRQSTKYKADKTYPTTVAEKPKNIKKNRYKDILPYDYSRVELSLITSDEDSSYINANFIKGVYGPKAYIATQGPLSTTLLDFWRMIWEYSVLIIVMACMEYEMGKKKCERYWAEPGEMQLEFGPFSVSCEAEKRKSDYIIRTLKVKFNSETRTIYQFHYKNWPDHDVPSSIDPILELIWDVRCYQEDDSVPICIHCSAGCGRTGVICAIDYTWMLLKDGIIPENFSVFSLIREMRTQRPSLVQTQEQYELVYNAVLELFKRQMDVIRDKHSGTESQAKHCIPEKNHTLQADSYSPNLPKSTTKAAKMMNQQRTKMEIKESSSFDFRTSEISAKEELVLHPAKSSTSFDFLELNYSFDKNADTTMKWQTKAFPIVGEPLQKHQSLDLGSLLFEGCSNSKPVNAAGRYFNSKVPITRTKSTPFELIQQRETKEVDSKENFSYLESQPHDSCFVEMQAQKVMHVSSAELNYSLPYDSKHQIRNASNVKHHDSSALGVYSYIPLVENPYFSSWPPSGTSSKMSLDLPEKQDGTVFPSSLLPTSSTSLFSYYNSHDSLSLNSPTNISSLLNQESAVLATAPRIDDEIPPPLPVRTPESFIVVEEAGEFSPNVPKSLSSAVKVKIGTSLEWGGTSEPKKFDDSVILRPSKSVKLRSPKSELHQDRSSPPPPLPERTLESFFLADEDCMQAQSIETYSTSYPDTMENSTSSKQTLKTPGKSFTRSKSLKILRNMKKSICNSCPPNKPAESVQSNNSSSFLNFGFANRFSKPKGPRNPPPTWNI

[14] = molecular target: Dual specificity protein phosphatase 3 (Homo sapiens, UniProt P51452); assay: VHR phosphatase inhibition, dose response, selectivity assay for STEP inhibitor project, biochemical (AID 602374); format: functional; conditions: read-out: IC50_Mean
Chain of Dual specificity protein phosphatase 3 (P51452 whole entry): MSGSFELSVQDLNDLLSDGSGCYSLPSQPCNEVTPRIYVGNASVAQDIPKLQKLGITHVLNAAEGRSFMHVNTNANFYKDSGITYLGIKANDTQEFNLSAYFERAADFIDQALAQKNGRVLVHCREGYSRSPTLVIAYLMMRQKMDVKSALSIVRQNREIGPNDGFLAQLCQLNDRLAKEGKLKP

[15] = molecular target: Tyrosine-protein phosphatase non-receptor type 5 (Homo sapiens, UniProt P54829); assay: PTPN5 enzyme inhibition – biochemical, fluorescence intensity, uHTS hits, confirmation (AID 602372); format: functional; conditions: read-out: IC50_Mean
Chain of Tyrosine-protein phosphatase non-receptor type 5 (P54829 whole entry): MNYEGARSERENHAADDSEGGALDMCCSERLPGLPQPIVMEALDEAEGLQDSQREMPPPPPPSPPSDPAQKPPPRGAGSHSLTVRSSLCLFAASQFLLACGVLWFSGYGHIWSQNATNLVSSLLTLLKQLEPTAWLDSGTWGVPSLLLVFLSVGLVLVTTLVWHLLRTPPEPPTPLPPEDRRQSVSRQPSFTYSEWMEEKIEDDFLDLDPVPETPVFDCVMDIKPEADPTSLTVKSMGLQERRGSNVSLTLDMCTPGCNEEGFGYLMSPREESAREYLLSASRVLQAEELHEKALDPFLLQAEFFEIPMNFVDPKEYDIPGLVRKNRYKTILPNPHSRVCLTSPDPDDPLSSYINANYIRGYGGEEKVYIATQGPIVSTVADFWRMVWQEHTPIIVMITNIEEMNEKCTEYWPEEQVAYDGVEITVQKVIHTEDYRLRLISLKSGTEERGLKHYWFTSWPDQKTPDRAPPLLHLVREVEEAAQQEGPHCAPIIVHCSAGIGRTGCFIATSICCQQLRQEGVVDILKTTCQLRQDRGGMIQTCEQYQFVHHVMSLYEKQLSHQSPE

[16] = molecular target: Tyrosine-protein phosphatase non-receptor type 11 (Homo sapiens, UniProt Q06124); assay: PTPN11 enzyme inhibitors – biochemical, selectivity assay for STEP inhibitor project, dose response (AID 602367); format: functional; conditions: read-out: IC50_Mean
Chain of Tyrosine-protein phosphatase non-receptor type 11 (Q06124 whole entry, the tested form may be a part): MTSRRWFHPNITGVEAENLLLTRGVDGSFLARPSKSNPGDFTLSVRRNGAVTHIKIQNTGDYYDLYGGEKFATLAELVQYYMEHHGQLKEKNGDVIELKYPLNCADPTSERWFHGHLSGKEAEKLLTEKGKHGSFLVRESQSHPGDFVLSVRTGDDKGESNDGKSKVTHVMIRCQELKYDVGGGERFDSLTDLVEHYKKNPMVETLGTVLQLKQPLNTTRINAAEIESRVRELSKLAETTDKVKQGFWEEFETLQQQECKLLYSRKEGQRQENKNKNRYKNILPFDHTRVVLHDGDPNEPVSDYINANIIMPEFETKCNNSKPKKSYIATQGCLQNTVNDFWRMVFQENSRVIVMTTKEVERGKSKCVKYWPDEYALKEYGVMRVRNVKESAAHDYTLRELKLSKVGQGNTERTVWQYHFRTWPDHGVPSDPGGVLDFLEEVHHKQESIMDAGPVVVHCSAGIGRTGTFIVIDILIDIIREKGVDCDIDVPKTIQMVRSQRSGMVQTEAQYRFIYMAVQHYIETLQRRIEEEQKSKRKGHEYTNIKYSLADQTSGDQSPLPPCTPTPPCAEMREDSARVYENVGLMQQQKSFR

[17] = molecular target: T3, Carboxy-terminal domain RNA polymerase II polypeptide A small phosphatase 1 (Homo sapiens, UniProt Q9GZU7); assay: CTDSP1 inhibitors, concentration-response, biochemical, absorbance readout, ultra-high-throughput screen actives (AID 540297); format: functional
T3 sequence (Q9GZU7 whole entry): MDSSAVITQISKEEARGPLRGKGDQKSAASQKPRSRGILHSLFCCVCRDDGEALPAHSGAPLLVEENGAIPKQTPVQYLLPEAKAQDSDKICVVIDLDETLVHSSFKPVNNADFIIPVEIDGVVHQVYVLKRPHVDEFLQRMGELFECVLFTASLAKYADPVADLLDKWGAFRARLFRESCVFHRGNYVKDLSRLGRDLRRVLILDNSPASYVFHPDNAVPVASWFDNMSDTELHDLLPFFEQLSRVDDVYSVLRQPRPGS

Chain of Galanin receptor type 3 (O60755 whole entry): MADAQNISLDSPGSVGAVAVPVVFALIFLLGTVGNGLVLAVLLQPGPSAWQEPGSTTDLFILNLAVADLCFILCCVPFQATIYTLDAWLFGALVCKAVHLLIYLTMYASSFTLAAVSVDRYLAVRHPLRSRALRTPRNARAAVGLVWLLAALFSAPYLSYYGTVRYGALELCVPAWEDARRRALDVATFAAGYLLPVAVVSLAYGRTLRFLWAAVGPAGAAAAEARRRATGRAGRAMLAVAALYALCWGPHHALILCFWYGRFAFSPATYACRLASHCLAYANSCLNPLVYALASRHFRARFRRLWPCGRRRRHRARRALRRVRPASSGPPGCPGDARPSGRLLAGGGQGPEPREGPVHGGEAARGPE

CCn1cc(C(=O)NC2CCCc3c2cnn3-c2cccc(C)c2C)cn1 (stereo unspecified)
EC50 (cells): > 29.9 µM (inactive) | IC50 (Galanin receptor type 3): 0.874 µM (active) | IC50 [1]: > 80 µM (inactive)

COc1ccc2c(c1OC)c(=O)n1c3ccc(OC(C)C(=O)NCCN4CCOCC4)cc3c3ccnc2c31 (stereo unspecified)
IC50 (H9c2): 21.3 µM (active) | AC50 [2]: 4.31 µM (active)

Cc1ccc(-c2nc(C(Cl)Cl)c3ccccc3n2)cc1
IC50 [3]: 0.373 µM (active) | AC50 (INS1): 4.53 µM (active) | AC50 [4]: 10.1 µM (active) | AC50 [5]: 1.1 µM (active) | AC50 [6]: 20 µM (active)

CCOc1ccccc1NC(=O)C(OC(=O)c1ccc(N(C)C)cc1)c1ccccc1 (stereo unspecified)
EC50 [7]: 2.75 µM (active)

CCOc1ccc2nc(NN=C3C(=O)NC(=S)NC3=O)sc2c1
IC50 [8]: 13.9 µM (active)

Cc1ccc(S(=O)(=O)N2[C@@H](c3ccc(Br)cc3)C(C(=O)O)=CC[C@H]2c2ccc(Cl)cc2)cc1
IC50 [9]: 1.62 µM (active) | EC50 [10]: > 29.9 µM (inactive) | IC50 [11]: 17.5 µM (inactive) | EC50 [12]: 13.1 µM (inactive)

O=C(O)Cc1cccc(O)c(=O)c1C(=O)O
IC50 [13]: 8.34 µM (active) | IC50 [14]: 0.544 µM (active) | IC50 [15]: 11.6 µM (active) | IC50 [16]: 0.376 µM (active) | IC50 [17]: 3.9 µM (active)
